Laboratory results taken from patent publication US11312719B2, “9-substituted amino triazolo quinazoline derivatives as adenosine receptor antagonists, pharmaceutical compositions and their use” (Merck Sharp & Dohme Corp., priority 2018, dated 2022).

How the values were obtained:
[1] = biological target: human A2b adenosine receptor (Homo sapiens (Human), UniProt P29275); experiment: A2b radioligand filtration binding assay; conditions: membranes from HEK293 cells expressing human A2b receptor
Description: Measurement of A2b Binding Affinity
The reported affinity of the compounds of the invention for the human A2b adenosine receptor was determined experimentally using a radioligand filtration binding assay. This assay measures the amount of binding of a tritiated proprietary A2b receptor antagonist, in the presence and absence of a compound of the invention, to membranes made from HEK293 cells recombinantly expressing the human A2b adenosine receptor (Perkin Elmer, Cat. No. ES-013-C).
148 μL (135 μg/mL) membranes and 2 μL test compounds were transferred to individual wells of a 96-well polypropylene assay plate and incubated for 15 to 30 minutes at room temperature with agitation. Tritiated radioligand was diluted to a concentration of 14 nM in assay buffer (phosphate buffered saline without Magnesium and Calcium, pH 7.4; GE Healthcare Life Sciences, Cat. No. SH30256.01) and then 50 μL of the solution were transferred to each well of the assay plate. To define total and non-specific binding, wells containing 1% DMSO and 20 μM N-ethylcarboxamidoadenosine (Tocris Bioscience, Cat. No. 1691) respectively, were also included. The wells of the assay plate were incubated at room temperature for 60 minutes with agitation, then filtered using a FilterMate Harvester® (Perkin Elmer) or similar equipment through a UniFilter-96® PEI coated plate (Perkin Elmer Cat. No. 6005274 or 6005277). Filtering was achieved by aspirating the contents of the assay plate for 5 seconds, then washing and aspirating the contents three times with ice-cooled wash buffer (assay buffer supplemented with 0.0025% Brij58) and allowing the vacuum manifold to dry the plate for 30 seconds. The filter plate was incubated for at least 1 hour at 55° C. and allowed to dry. The bottom of the filter plate was then sealed with backing tape. 40 μL Ultima Gold™ (Perkin Elmer, Cat. No. 6013329) was added to each well of the filter plate and the top of the plate was sealed with TopSeal-A PLUS® clear plate seal (Perkin Elmer, Cat. No. 6050185). The plates were then incubated for at least 20 minutes, and then the amount of radioactivity remaining in each well was determined using a TopCount® (Perkin Elmer) scintillation counter. After normalization to total and non-specific binding, the percent effect at each compound concentration was calculated. The plot of percent effect versus the log of compound concentration was analyzed electronically using a 4-parameter logistic fit based on the Levenberg-Marquardt algorithm to generate IC50 values.

[2] = biological target: human A2a adenosine receptor (Homo sapiens (Human), UniProt P29274); experiment: A2a receptor affinity radioligand binding assay ([3H] SCH58261); conditions: membranes from HEK293 or CHO cells expressing human A2a receptor
Description: The A2a receptor affinity binding assay measured the amount of binding of a tritiated ligand with high affinity for the A2a adenosine receptor to membranes made from HEK293 or CHO cells recombinantly expressing the human A2a adenosine receptor, in the presence of varying concentrations of a compound of the invention.
Measurement of A2a Binding Affinity Using Radioligand Binding
148 μL (5 μg/mL) membranes (Perkin Elmer, Cat. No. RBHA2aM400UA) and 2 μL compounds of the invention to be tested (test compound) were transferred to individual wells of a 96-well polypropylene assay plate and incubated for 15 to 30 minutes at room temperature. [^3H] SCH58261 ((7-(2-phenylethyl)-5-amino-2-(2-furyl)-pyrazolo-[4,3-e]-1,2,4-triazolo[1,5-c]pyrimidine)) was diluted in assay buffer (50 mM Tris pH 7.4, 10 mM MgCl2, 0.005% Tween20) to a concentration of 4 nM and 50 μL transferred to each well of the assay plate. To define total and non-specific binding, wells containing 1% DMSO and 1 μM ZM241385 (Tocris Bioscience, Cat. No. 1036) respectively, were also included. The assay plate was incubated at room temperature for 60 minutes with agitation. Using a FilterMate Harvester® (Perkin Elmer), the contents of the assay plate were filtered through a UniFilter-96® PEI coated plate (Perkin Elmer Cat. No. 6005274 or 6005277). Filtering was achieved by aspirating the contents of the assay plate for 5 seconds, then washing and aspirating the contents three times with ice-cooled wash buffer (50 mM Tris-HCl pH 7.4, 150 mM NaCl) and allowing the vacuum manifold to dry the plate for 30 seconds. The filter plate was incubated for at least 1 hour at 55° C., and allowed to dry. The bottom of the filter plate was sealed with backing tape. 40 μL Ultima Gold™ (Perkin Elmer, Cat. No. 6013329) was added to each well of the filter plate and the top of the plate was sealed with TopSeal-A PLUS® clear plate seal (Perkin Elmer, Cat. No. 6050185). The plate was incubated for at least 20 minutes, and then the amount of radioactivity remaining in each well was determined using a TopCount® (Perkin Elmer) scintillation counter. After normalization to total and non-specific binding, the percent effect at each compound concentration was calculated. The plot of percent effect versus the log of compound concentration was analyzed electronically using a 4-parameter logistic fit based on the Levenberg-Marquardt algorithm to generate IC50 values.

Chain of human A2a adenosine receptor (P29274 whole entry): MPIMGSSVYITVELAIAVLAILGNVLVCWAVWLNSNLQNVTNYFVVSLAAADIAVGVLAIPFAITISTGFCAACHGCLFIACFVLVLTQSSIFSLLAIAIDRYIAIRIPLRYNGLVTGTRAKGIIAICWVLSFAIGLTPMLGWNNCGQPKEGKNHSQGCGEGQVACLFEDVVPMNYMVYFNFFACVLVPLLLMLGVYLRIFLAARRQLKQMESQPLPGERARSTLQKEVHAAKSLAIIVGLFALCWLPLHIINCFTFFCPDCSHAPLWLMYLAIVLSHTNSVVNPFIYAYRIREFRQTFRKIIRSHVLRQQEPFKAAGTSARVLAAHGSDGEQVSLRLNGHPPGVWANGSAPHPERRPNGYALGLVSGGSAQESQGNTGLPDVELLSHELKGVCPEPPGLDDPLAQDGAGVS
Chain of human A2b adenosine receptor (P29275 whole entry): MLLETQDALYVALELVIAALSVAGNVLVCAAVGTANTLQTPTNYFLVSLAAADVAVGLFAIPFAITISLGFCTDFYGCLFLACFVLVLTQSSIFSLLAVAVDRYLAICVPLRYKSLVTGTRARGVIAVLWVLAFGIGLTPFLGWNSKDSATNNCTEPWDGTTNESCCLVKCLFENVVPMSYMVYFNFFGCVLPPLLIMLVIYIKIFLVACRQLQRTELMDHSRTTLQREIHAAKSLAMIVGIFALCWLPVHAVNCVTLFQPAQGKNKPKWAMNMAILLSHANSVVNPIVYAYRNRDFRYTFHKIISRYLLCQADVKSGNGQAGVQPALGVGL

SMILES	IC50 [1]	IC50 [2]
COc1cc2nc(N)n3nc(C4CCCN(c5cnn(CC(C)(C)O)c5)C4=O)nc3c2cc1F (racemic) [Example 139, rac-3-(5-amino-9-fluoro-8-methoxy-[1,2,4]triazolo[1,5-c]quinazolin-2-yl)-1-(1-(2-hydroxy-2-methylpropyl)-1H-pyrazol-4-yl)piperidin-2-one]	2820 nM	16.8 nM
COc1cc2nc(N)n3nc(C4CCC(C)N(c5cnn(CC(C)(C)O)c5C)C4)nc3c2cc1F (single isomer, unassigned) [Example 41, 1-(4-((2S,5R or 2R,5S)-5-(5-amino-9-fluoro-8-methoxy-[1,2,4]triazolo[1,5-c]quinazolin-2-yl)-2-methylpiperidin-1-yl)-5-methyl-1H-pyrazol-1-yl)-2-methylpropan-2-ol]	42.8 nM	1.2 nM
COc1cc2nc(N)n3nc(C4CCC(C)N(c5cn(CC(C)(C)O)nc5C)C4)nc3c2cc1F (single isomer, unassigned) [Example 42, 1-(4-((2S,5R or 2R,5S)-5-(5-amino-9-fluoro-8-methoxy-[1,2,4]triazolo[1,5-c]quinazolin-2-yl)-2-methylpiperidin-1-yl)-3-methyl-1H-pyrazol-1-yl)-2-methylpropan-2-ol]	476 nM	4.3 nM
COc1cc2nc(N)n3nc(C4CCC(C)N(c5cnn(C6CCOCC6)c5)C4)nc3c2cc1F (single isomer, unassigned) [Example 44, 9-fluoro-8-methoxy-2-((3R,6S or 3S,6R)-6-methyl-1-(1-(tetrahydro-2H-pyran-4-yl)-1H-pyrazol-4-yl)piperidin-3-yl)-[1,2,4]triazolo[1,5-c]quinazolin-5-amine]	20.4 nM	1.3 nM
COc1cc2nc(N)n3nc(C4CCC(C)N(c5cnn(C6CCOCC6)c5C)C4)nc3c2cc1F (single isomer, unassigned) [Example 45, 9-fluoro-8-methoxy-2-((3R,6S or 3S,6R)-6-methyl-1-(5-methyl-1-(tetrahydro-2H-pyran-4-yl)-1H-pyrazol-4-yl)piperidin-3-yl)-[1,2,4]triazolo[1,5-c]quinazolin-5-amine]	150 nM	1.8 nM
COc1cc2nc(N)n3nc(C4CCC(C)N(c5cn(C6CCOCC6)nc5C)C4)nc3c2cc1F (single isomer, unassigned) [Example 46, 9-fluoro-8-methoxy-24(3R,6S or 3S,6R)-6-methyl-1-(3-methyl-1-(tetrahydro-2H-pyran-4-yl)-1H-pyrazol-4-yl)piperidin-3-yl) [1,2,4]triazolo[1,5-c]quinazolin-5-amine]	86.4 nM	0.6 nM
COc1cc2nc(N)n3nc(C4CCC(C)N(c5cnn(CC6(CF)COC6)c5)C4)nc3c2cc1F (single isomer, unassigned) [Example 47, 9-fluor-2-((3R,6S or 3S,6R)-1-(1((3-(fluoromethyl)oxetan-3-yl)methyl)-1H-pyrazol-4-yl)-6-methylpiperidin-3-yl)-8-methoxy-[1,2,4]triazolo[1,5-c]quinazolin-5-amine]	284 nM	8.2 nM
COc1cc2nc(N)n3nc([C@H]4CC[C@@H](C)N(c5cn(CC6(O)CCC6)nc5C)C4)nc3c2cc1F (single isomer, unassigned) [Example 50, 1-((4-((2R,5S or 2S,5R)-5-(5-amino-9-fluoro-8-methoxy-[1,2,4]triazolo[1,5-c]quinazolin-2-yl)-2-methylpiperidin-1-yl)-3-methyl-1H-pyrazol-1-yl)methyl)cyclobutan-1-ol]	1890 nM	18.3 nM
COc1cc2nc(N)n3nc([C@H]4CC[C@@H](C)N(c5cnn(CC6(O)CCC6)c5C)C4)nc3c2cc1F (single isomer, unassigned) [Example 51, 1-((4-((2R,5S or 2S,5R)-5-(5-amino-9-fluoro-8-methoxy-[1,2,4]triazolo[1,5-c]quinazolin-2-yl)-2-methylpiperidin-1-yl)-5-methyl-1H-pyrazol-1-yl)methyl)cyclobutan-1-ol]	2080 nM	21 nM

Second part, the compound after the results:

IC50 [1]	IC50 [2]	SMILES
43.3 nM	1.1 nM	COc1cc(F)cc2c1nc(N)n1nc(C3CCCCN(c4cnn(CC(C)(C)O)c4)C3)nc21 (racemic) [Example 39, rac-1-(4-(3-(5-amino-9-fluoro-7-methoxy-[1,2,4]triazolo [1,5-c]quinazoln-2-yl)azepan-1-yl)-1H-pyrazol-1-yl)-2-methylpropan-2-ol]
75 nM	1.7 nM	COc1cc2nc(N)n3nc([C@@H]4CCCN(c5cnn(C(C)C(C)(C)O)c5)C4)nc3c2cc1F (single isomer, unassigned) [Example 12, (S or R)-3-(4-((R)-3-(5-amino-9-fluoro-8-methoxy-[1,2,4]triazolo [1,5-c]quinazolin-2-yl)piperidin-1-yl)-1H-pyrazol-1-yl)-2-methylbutan-2-ol]
72.6 nM	0.7 nM	COc1cc2nc(N)n3nc([C@@H]4CCCN(c5cnn(C(C)C(C)(C)O)c5)C4)nc3c2cc1F (single isomer, unassigned) [Example 13, (R or S)-3-(4-((R)-3-(5-amino-9-fluoro-8-methoxy-[1,2,4]triazolo[1,5-c]quinazolin-2-yl)piperidin-l-yl)-1H-pyrazol-1-yl)-2-methylbutan-2-ol]
3.4 nM	0.7 nM	COc1cc2nc(N)n3nc(C4CCC(C)N(c5cnn(C(C)(C)C(C)(C)O)c5)C4)nc3c2cc1F (single isomer, unassigned) [Example 43, 3-(4-((2S,5R or 2R,5S)-5-(5-amino-9-fluoro-8-methoxy-[1,2,4]triazolo[1,5-c]quinazolin-2-yl)-2-methylpiperidin-1-yl)-1H-pyrazol-1-yl)-2,3-dimethylbutan-2-ol]
17.6 nM	0.6 nM	COc1cc2nc(N)n3nc([C@@H]4CC[C@H](C)N(c5cnn(C(C)C(C)(C)O)c5)C4)nc3c2cc1F (single isomer, unassigned) [Example 48, (R or S)-3-(4-((2S,5R or 2R,5S)-5-(5-amino-9-fluoro-8-methoxy-[1,2,4]triazolo[1,5-c]quinazolin-2-yl)-2-methylpiperidin-1-yl)-1H-pyrazol-1-yl)-2-methylbutan-2-ol]
2.7 nM	0.3 nM	COc1cc2nc(N)n3nc([C@@H]4CC[C@H](C)N(c5cnn([C@@H](C)C(C)(C)O)c5)C4)nc3c2cc1F (single isomer, unassigned) [Example 49, (S or R)-3-(4-((2S,5R or 2R,5S)-5-(5-amino-9-fluoro-8-methoxy-[1,2,4]triazolo[1,5-c]quinazolin-2-yl)-2-methylpiperidin-1-yl)-1H-pyrazol-1-yl)-2-methylbutan-2-ol]
500 nM	10.6 nM	COc1cc2nc(N)n3nc(C4CC(F)CN(c5cnn(CC(C)(C)O)c5)C4)nc3c2cc1F (single isomer, unassigned) [Example 55, 1-(4-((3R,5S or 3S,5R)-3-(5-amino-9-fluoro-8-methoxy-[1,2,4]triazolo[1,5-c]quinazolin-2-yl)-5-fluoropiperidin-1-yl)-1H-pyrazol-1-yl)-2-methylpropan-2-ol]
